Laboratory results: patent US7521449B2, “4-arylmorpholin-3-one derivatives, their preparation and therapeutic use thereof” (Sanofi-Aventis, priority 2004, dated 2009)
Counter-ions that a name gives are not always drawn.

How the values were obtained:
NK2 receptor = molecular target: T1, NK2 receptor (Mus musculus, UniProt P30549); experiment: Spinning behavior caused by injection of [Nle10]NKA(4-10) into the striatum of mice, compounds administered orally; assay type: in vivo
T1 construct: from tissue; host or cells: mouse striatum (in vivo)
T1 sequence (P30549 1-384): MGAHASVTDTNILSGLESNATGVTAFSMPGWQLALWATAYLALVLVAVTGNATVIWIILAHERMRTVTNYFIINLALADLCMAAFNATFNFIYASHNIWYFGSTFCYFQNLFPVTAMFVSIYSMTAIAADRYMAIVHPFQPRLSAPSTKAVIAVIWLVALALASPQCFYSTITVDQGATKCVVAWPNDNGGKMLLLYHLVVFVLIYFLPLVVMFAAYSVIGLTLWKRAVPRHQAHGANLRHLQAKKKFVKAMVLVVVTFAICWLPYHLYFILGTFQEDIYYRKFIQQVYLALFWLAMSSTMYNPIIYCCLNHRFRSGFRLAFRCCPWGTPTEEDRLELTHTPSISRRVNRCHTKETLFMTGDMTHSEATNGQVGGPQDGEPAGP
Description: The compounds of the present invention were also evaluated in vivo in a model of pharmacodynamics.
In mice, injection into the striatum of a specific agonist of the NK2 receptor, [Nle^10]NKA(4-10), causes a spinning behavior, which is inhibited in a dose-dependent manner by the compounds according to the invention administered orally. This test was performed according to Poncelet et al. (Neurosci. Lett., 1993, 149, 40-42).

[1] = molecular target: T2, cloned human NK2 receptors (Homo sapiens, UniProt P21452); experiment: Inhibition of the binding of [125I]His-neurokinin A to cloned human NK2 receptors expressed by CHO cells; settings: binding of [125I]His-NKA, cloned human NK2 receptors expressed in CHO cells; read-out: inhibition constant Ki
T2 construct: expressed in transfected cells; host or cells: CHO cells
T2 sequence (P21452 1-398): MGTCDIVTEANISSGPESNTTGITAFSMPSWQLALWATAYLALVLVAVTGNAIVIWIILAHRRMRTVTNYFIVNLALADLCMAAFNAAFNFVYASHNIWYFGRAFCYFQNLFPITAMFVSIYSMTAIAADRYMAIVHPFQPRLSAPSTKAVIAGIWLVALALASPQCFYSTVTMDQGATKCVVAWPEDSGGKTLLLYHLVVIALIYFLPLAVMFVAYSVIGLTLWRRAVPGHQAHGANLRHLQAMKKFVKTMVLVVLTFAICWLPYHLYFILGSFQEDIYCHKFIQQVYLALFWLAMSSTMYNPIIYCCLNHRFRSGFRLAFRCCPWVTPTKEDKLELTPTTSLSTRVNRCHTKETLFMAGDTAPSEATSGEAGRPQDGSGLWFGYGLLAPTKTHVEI
Description: The affinity of the compounds for the tachykinin receptors NK2 was evaluated in vitro by measuring the inhibition of the binding of [^125I]His-neurokinin A ([^125I]His-NKA) to cloned human NK2 receptors expressed by CHO cells (Y. Takeda et al., J. Neurochem., 1992, 59, 740-745).
The trials were performed according to […]

**Q.** Which results are given for `CC(=O)NC1(c2cccc(F)c2)CCN(CCC2(c3ccc(Cl)c(Cl)c3)CN(c3ccccc3)C(=O)CO2)CC1` (single isomer, unassigned) [Compound 3, N-[1-[2-[2-(3,4-Dichlorophenyl)-5-oxo-4-phenylmorpholin-2-yl]ethyl]-4-(3-fluorophenyl)piperid-4-yl]acetamide hydrochloride, dextrorotatory isomer]?
**A.** antagonism of the NK2 receptors (blocking the pharmacological effects caused by neurokinin A) (NK2 receptor; conclusion from the pharmacological results): antagonists of the NK2 receptors; ED50 (NK2 receptor; mouse, po, mice, orally, spinning behavior caused by intrastriatal [Nle10]NKA(4-10), read-out: 50 effective dose (ED50)): 0.023 mg/kg; Ki [1]: 0.16 nM
